Test: mn = molality of the nth substance listed, in mol/kg
Settings: 100 kPa, Liquid; for speed of sound: Frequency=3 MHz, Sing-around technique in a fixed-path interferometer; for mass density: Vibrating tube method

CCCC[N+](CCCC)(CCCC)CCCC.[I-] [tetrabutylammonium iodide] + O
Settings | mass density, 288.15 K [kg/m3] | mass density, 293.15 K [kg/m3] | mass density, 298.15 K [kg/m3] | mass density, 303.15 K [kg/m3] | mass density, 308.15 K [kg/m3] | speed of sound, 288.15 K [m/s] | speed of sound, 293.15 K [m/s] | speed of sound, 298.15 K [m/s] | speed of sound, 303.15 K [m/s] | speed of sound, 308.15 K [m/s]
m1 = 0.01 | 1001.07 | 1000.16 | 998.97 | 997.53 | 995.95 | 1468.9 | 1484.9 | 1498.9 | 1511.1 | 1521.2
m1 = 0.02 | 1001.64 | 1000.72 | 999.53 | 998.07 | 996.49 | 1471.3 | 1487.1 | 1500.9 | 1512.9 | 1522.9
m1 = 0.03 | 1002.22 | 1001.29 | 1000.09 | 998.61 | 997.02 | 1473.6 | 1489.1 | 1502.8 | 1514.5 | 1524.4
m1 = 0.04 | 1002.83 | 1001.88 | 1000.67 | 999.19 | 997.58 | 1475.8 | 1491.3 | 1504.7 | 1516.3 | 1526
